Measured values reported in the supplement of paper PMC10307832.

Experiments:
Assay in all cases: relative viability (nuclei count vs DMSO), 5 days (fraction); higher = more cells survive
Everolimus + Foretinib = compound: CO[C@H]1C[C@@H]2CC[C@@H](C)[C@@](O)(O2)C(=O)C(=O)N2CCCC[C@H]2C(=O)O[C@H]([C@H](C)C[C@@H]2CC[C@@H](OCCO)[C@H](OC)C2)CC(=O)[C@H](C)/C=C(\C)[C@@H](O)[C@@H](OC)C(=O)[C@H](C)C[C@H](C)/C=C/C=C/C=C/1C [Everolimus] + COc1cc2c(Oc3ccc(NC(=O)C4(C(=O)Nc5ccc(F)cc5)CC4)cc3F)ccnc2cc1OCCCN1CCOCC1 [Foretinib] (partner 0.25 µM)
Method in brief: (§1)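 Cells from lung cancer lines were seeded into 1536-well plates and, one day later, dosed by pin tool. Treatments were either a single drug or a fixed dose of an anchor drug with five library-drug doses (not always all listed) in √10 steps. After 5 days, nuclei were stained in a one-step fixation (final 0.05% Triton X-100, 1% formaldehyde, 1 ug/ml Hoechst) and counted on 4× images, and relative viability is the treated-to-vehicle nuclei ratio, as the median of duplicate plates.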

Everolimus + Alpelisib = compound: CO[C@H]1C[C@@H]2CC[C@@H](C)[C@@](O)(O2)C(=O)C(=O)N2CCCC[C@H]2C(=O)O[C@H]([C@H](C)C[C@@H]2CC[C@@H](OCCO)[C@H](OC)C2)CC(=O)[C@H](C)/C=C(\C)[C@@H](O)[C@@H](OC)C(=O)[C@H](C)C[C@H](C)/C=C/C=C/C=C/1C [Everolimus] + Cc1nc(NC(=O)N2CCC[C@H]2C(N)=O)sc1-c1ccnc(C(C)(C)C(F)(F)F)c1 [Alpelisib] (partner 2 µM)
Method in brief: as §1

Everolimus + Pemetrexed = compound: CO[C@H]1C[C@@H]2CC[C@@H](C)[C@@](O)(O2)C(=O)C(=O)N2CCCC[C@H]2C(=O)O[C@H]([C@H](C)C[C@@H]2CC[C@@H](OCCO)[C@H](OC)C2)CC(=O)[C@H](C)/C=C(\C)[C@@H](O)[C@@H](OC)C(=O)[C@H](C)C[C@H](C)/C=C/C=C/C=C/1C [Everolimus] + Nc1nc2[nH]cc(CCc3ccc(C(=O)N[C@@H](CCC(=O)O)C(=O)O)cc3)c2c(=O)[nH]1 [Pemetrexed] (partner 0.2 µM)
Method in brief: as §1

Everolimus + Olaparib = compound: CO[C@H]1C[C@@H]2CC[C@@H](C)[C@@](O)(O2)C(=O)C(=O)N2CCCC[C@H]2C(=O)O[C@H]([C@H](C)C[C@@H]2CC[C@@H](OCCO)[C@H](OC)C2)CC(=O)[C@H](C)/C=C(\C)[C@@H](O)[C@@H](OC)C(=O)[C@H](C)C[C@H](C)/C=C/C=C/C=C/1C [Everolimus] + O=C(c1cc(Cc2n[nH]c(=O)c3ccccc23)ccc1F)N1CCN(C(=O)C2CC2)CC1 [Olaparib] (partner 8 µM)
Method in brief: as §1

Cell Line	relative viability (Everolimus + Foretinib; first compound 0.01 µM)	relative viability (Everolimus + Foretinib; first compound 0.03162 µM)	relative viability (Everolimus + Foretinib; first compound 0.1 µM)	relative viability (Everolimus + Foretinib; first compound 0.3162 µM)	relative viability (Everolimus + Foretinib; first compound 1 µM)	relative viability (Everolimus + Alpelisib; first compound 0.01 µM)	relative viability (Everolimus + Alpelisib; first compound 0.03162 µM)	relative viability (Everolimus + Alpelisib; first compound 0.1 µM)	relative viability (Everolimus + Alpelisib; first compound 0.3162 µM)	relative viability (Everolimus + Alpelisib; first compound 1 µM)	relative viability (Everolimus + Pemetrexed; first compound 0.01 µM)	relative viability (Everolimus + Pemetrexed; first compound 0.03162 µM)	relative viability (Everolimus + Pemetrexed; first compound 0.1 µM)	relative viability (Everolimus + Pemetrexed; first compound 0.3162 µM)	relative viability (Everolimus + Pemetrexed; first compound 1 µM)	relative viability (Everolimus + Olaparib; first compound 0.01 µM)	relative viability (Everolimus + Olaparib; first compound 0.03162 µM)	relative viability (Everolimus + Olaparib; first compound 0.1 µM)	relative viability (Everolimus + Olaparib; first compound 0.3162 µM)	relative viability (Everolimus + Olaparib; first compound 1 µM)
NCI-H322M	0.695	0.655	0.666	0.78	0.73	0.686	0.577	0.578	0.585	0.58	0.597	0.598	0.554	0.597	0.618	0.723	0.686	0.742	0.704	0.73
NCI-H2347	0.855	0.499	0.511	0.684	0.552	0.979	0.872	0.564	0.783	0.826	0.406	0.442	0.486	0.412	0.434	0.565	0.54	0.527	0.525	0.505
NCI-H1975	0.765	0.67	0.714	0.748	0.579	0.494	0.454	0.456	0.376	0.339	0.37	0.343	0.353	0.345	0.339	0.752	0.654	0.697	0.691	0.655
UMC-11	0.478	0.371	0.441	0.422	0.401	0.348	0.304	0.301	0.32	0.311	0.43	0.412	0.429	0.394	0.426	0.362	0.273	0.223	0.239	0.29
A-427	0.742	0.624	0.639	0.684	0.757	0.795	0.709	0.754	0.675	0.787	0.757	0.856	0.799	0.788	0.891	0.576	0.723	0.635	0.656	0.691
LCLC-97TM1	0.833	0.562	0.915	0.904	0.862	0.204	0.178	0.164	0.167	0.139	0.165	0.195	0.196	0.18	0.211	0.356	0.317	0.291	0.269	0.434
HCC-15	1.15	1.03	1.01	0.964	0.985	0.763	0.678	0.685	0.608	0.605	0.222	0.273	0.23	0.231	0.222	0.723	0.796	0.642	0.656	0.647
NCI-H647	0.957	0.697	0.646	0.776	0.612	0.626	0.534	0.449	0.429	0.757	0.175	0.184	0.156	0.11	0.175	0.268	0.303	0.199	0.176	0.368
